Test results: patent US6399782B1, “Benzimidazole inhibitors of fructose 1,6-bisphosphatase” (Metabasis Therapeutics, Inc., priority 1997, dated 2002)
Structures can show the parent of a compound that is named as a salt.

Experiments:
mouse liver FBPase = target: T1, mouse liver FBPase (Mus musculus, UniProt Q9QXD6); assay: Inhibition of mouse liver FBPase; type: biochemical; settings: partially purified mouse liver fraction
T1 construct: This partially purified fraction was used for enzyme assays; from tissue; host or cells: mouse liver, 45-75% ammonium sulfate fraction
T1 sequence (Q9QXD6 2-338 limits assumed): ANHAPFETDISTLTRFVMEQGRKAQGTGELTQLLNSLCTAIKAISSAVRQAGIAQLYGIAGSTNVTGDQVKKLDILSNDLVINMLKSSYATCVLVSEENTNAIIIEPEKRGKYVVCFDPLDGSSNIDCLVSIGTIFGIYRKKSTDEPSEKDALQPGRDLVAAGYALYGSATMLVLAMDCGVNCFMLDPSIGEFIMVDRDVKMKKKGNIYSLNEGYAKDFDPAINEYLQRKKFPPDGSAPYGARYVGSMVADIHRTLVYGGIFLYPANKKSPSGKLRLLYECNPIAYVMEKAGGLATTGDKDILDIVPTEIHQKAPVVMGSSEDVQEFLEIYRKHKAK
Method: Enzymatic activity was measured spectrophotometrically in reactions that coupled the formation of product (fructose 6-phosphate) to the reduction of dimethylthiazoldiphenyltetrazolium bromide (MTT) via NADP and phenazine methosulfate (PMS), using phosphoglucose isomerase and glucose 6-phosphate dehydrogenase as the coupling enzymes. Reaction mixtures (200 μl) were made up in 96-well microtitre plates, and consisted of 50 mM Tris-HCl, pH 7.4, 100 mM KCl, 5 mM EGTA, 2 mM MgCl2, 0.2 mM NADP, 1 mg/ml BSA, 1 mM MTT, 0.6 mM PMS, 1 unit/mL phosphoglucose isomerase, 2 units/mL glucose 6-phosphate dehydrogenase, and 0.150 mM substrate (fructose 1,6-bisphosphate). Inhibitor concentrations were varied from 0.01 μM to 10 μM.
Mouse liver FBPase was obtained by homogenizing freshly isolated mouse liver in 100 mM Tris-HCl buffer, pH 7.4, containing 1 mM EGTA, and 10% glycerol. […] This fraction was redissolved in the homogenization buffer and desalted on a PD-10 gel filtration column (Biorad) eluted with same. This partially purified fraction was used for enzyme assays. Both rat liver and mouse liver FBPase were assayed as described for human liver FBPase.

[1] = Estimation of the oral bioavailability of prodrugs of phosphonic acids; type: in vivo; settings: rat, prodrug by oral gavage approximately 20 or 40 mg/kg parent equivalents, urinary recovery of parent vs i.v. parent
Method: Prodrugs were dissolved in 10% ethanol/90% polyethylene glycol (mw 400) and administered by oral gavage at doses of approximately 20 or 40 mg/kg parent compound equivalents to 6-hour fasted, Sprague Dawley rats (220-240 g). The rats were subsequently placed in metabolic cages and urine was collected for 24 hours. The quantity of parent compound excreted into urine was determined by HPLC analysis. An ODS column eluted with a gradient from potassium phosphate buffer, pH 5.5 to acetonitrile was employed for these measurements. Detection was at 310-325 nm. […] Parent compounds were typically dissolved in dimethyl sulfoxide, and administered via the tail vein in animals that were briefly anesthetized with halothane.

rat hepatocytes = assay: Inhibition of gluconeogenesis in rat hepatocytes; type: cell-based; settings: glucose production from lactate/pyruvate, isolated rat hepatocytes, 1 hour
Method: Hepatocytes were prepared from overnight fasted Sprague-Dawley rats (250-300 g) according to the procedure of Berry and Friend (Berry, M. N., Friend, D. S., 1969, J. Cell. Biol. 43, 506-520) as modified by Groen (Groen, A. K., Sips, H. J., Vervoorn, R. C., Tager, J. M., 1982, Eur. J. Biochem. 122, 87-93). Hepatocytes (75 mg wet weight/mL) were incubated in 1 ml Krebs-bicarbonate buffer containing 10 mM Lactate, 1 mM pyruvate, 1 mg/mL BSA, and test compound concentrations from 1 to 500 μM. Incubations were carried out in a 95% oxygen, 5% carbon dioxide atmosphere in closed, 50-mL Falcon tubes submerged in a rapidly shaking water bath (37° C.). After 1 hour, an aliquot (0.25 mL) was removed, transferred to an Eppendorf tube and centrifuged. 50 μL of supernatant was then assayed for glucose content using a Sigma Glucose Oxidase kit as per the manufacturer's instructions.

Molecule | IC50 (mouse liver FBPase) [nM] | melting point | other results
CC(C)(C)Cn1c(-c2ccc(P(=O)(O)O)o2)nc2c(F)cccc21 [Compound 13.25, 4-Fluoro-1-neopentyl-2-(2-phosphonofuranyl)benzimidazole] | > 20000 |  | 
CC(C)(C)Cn1c(-c2ccc(P(=O)(OCOC(=O)C(C)(C)C)OCOC(=O)C(C)(C)C)o2)nc2c(N)ncnc21 [Compound C] |  |  | % Oral bioavailability [1]: 5.3%
CC(=O)OCC1COP(=O)(c2ccc(-c3nc4ccc(Cl)cc4n3CC(C)C)o2)OC1 (stereo not drawn) [Compound 31.14, 6-Chloro-1-isobutyl-2-{5-[2-(acetoxymethyl)-propan-1,3-yl]phosphono-2-furanyl}benzimidazole] |  |  | % Oral bioavailability [1]: 12.5%
CC(C)Cn1c(-c2ccc(P(=O)(O)O)o2)nc2c(N)c(F)c(Cl)cc21 [Compound 12.63, 4-Amino-5-fluoro-6-chloro-1-isobutyl-2-(2-phosphono-5-furanyl)benzimidazole] |  | 175 to 180 °C | IC50 (rat hepatocytes; Hepatocyte): 16000 nM
CC(C)Cn1c(-c2ccc(P(=O)(OCOC(=O)C(C)(C)C)OCOC(=O)C(C)(C)C)o2)nc2c(N)c(Cl)cc(Cl)c21 [Compound 18.2, 4-Amino-5,7-dichloro-1isobutyl-2-(5-furanyl-2-bispivaloyloxymethylphosphonate)benzimidazole] |  |  | IC50 (rat hepatocytes): 17000 nM
COC(=O)c1cccc(Cn2c(-c3ccc(P(=O)(O)O)o3)nc3c(N)cccc32)c1 [Compound 12.6, 4-Amino-1-(3-carbomethoxybenzyl)-2-[2-(5-phosphono)furanyl]benzimidazole] | > 20000 | 198 to 202 °C | 
CC(C)(C)Cn1c(-c2ccc(P(=O)(O)O)o2)nc2ccc(Cl)cc21 [Compound 13.56, 6-Chloro-1-neopentyl-2-(2-phosphono-5-furanyl)benzimidazole] | > 20000 |  | 
O=C(NCP(=O)(O)O)c1nc2ccccc2[nH]1 [Compound 13.66, N-(Phosphonomethyl)benzimidazole-2-carboxamide] | > 20000 | 258 to 260 °C | 
Cc1c(Cl)cc2c(nc(-c3ccc(P(=O)(O)O)o3)n2CC2CC2)c1C [Compound 13.61, 6-Chloro-4,5-dimethyl-1-cyclopropylmethyl-2-(2-phosphono-5-furanyl)benzimidazole] | > 20000 | 219 to 220 °C | 
CC(C)Cn1c(COCP(=O)(O)O)nc2c(N)c(F)cc(Br)c21 [Compound 15.1, 4-Amino-5-fluoro-7-bromo-1-isobutyl-2-(1-methoxymethyl-3-phosphono)benzimidazole] | 1500 | 200 to 202 °C (dec.) | IC50 (rat hepatocytes; Hepatocyte): 16000 nM
Cc1c(Cl)ccc2c1nc(-c1ccc(P(=O)(O)O)o1)n2CC(C)C [Compound 13.96, 1-Isobutyl-4-methyl-5-chloro-2-(2-phosphono-5-furanyl)benzimidazole] | 700 |  | 
4-Amino-5-fluoro-7-bromo-1-isobutyl-2-(1-methoxymethyl-3-bispivaloyloxymethylphosphonate)benzimidazole [Compound 18.7] |  |  | % Oral bioavailability [1]: 6.9%
CC(C)Cn1c(-c2ccc(P(=O)(O)O)o2)nc2c(N)c(F)cc(CCCN(C)C)c21 [Compound 12.84, 4-Amino-5-fluoro-7-(3-N,N-dimethylpropylamine)-1-isobutyl-2-(2-phosphono-5-furanyl)benzimidazole hydrobromide salt] | 500 |  | 
CC(C)Cn1c(-c2ccc(P(=O)(O)O)o2)nc2c(N)c(Cl)cc(Cl)c21 [Compound 12.50, 4-Amino-5,7-dichloro-1-isobutyl-2-(2-phosphono-5-furanyl)benzimidazole] |  | 205 to 207 °C | IC50 (rat hepatocytes; Hepatocyte): 17000 nM
CC(C)Cn1c(-c2ccc(P(=O)(O)O)o2)nc2c(N)c(F)cc(CCCO)c21 [Compound 12.79, 4-Amino-7-(propane-3-ol)-5-fluoro-1-isobutyl-2-(2-phosphono-5-furanyl)benzimidazole] | 720 | 170 to 173 °C | IC50 (rat hepatocytes; Hepatocyte): 1000 nM
CC(C)Cn1c(-c2ccc(P(=O)(O)O)o2)nc2c(N)c(F)cc(CCCCBr)c21 [Compound 12.82, 4-Amino-5-fluoro-7-(4-bromobutyl)-1-isobutyl-2-(2-phosphono-5-furanyl)benzimidazole] | 300 | 200 to 220 °C (dec.) | IC50 (rat hepatocytes; Hepatocyte): 2200 nM
Nc1cccc2c1nc(-c1ccc(P(=O)(O)O)o1)n2CCCCl [Compound 12.35, 4-Amino-1-(3-chloropropyl)-2-[2-(5-phosphono)furanyl]benzimidazole] | > 20000 |  | 
CC(C)Cn1c(-c2ccc(P(=O)(O)O)o2)nc2c(N)c(Br)cc(Br)c21 [Compound 12.42, 4-Amino-5,7-dibromo-1-isobutyl-2-[2-(5-phosphono)furanyl]benzimidazole] |  |  | IC50 (rat hepatocytes): 14000 nM
Nc1cccc2c1nc(-c1ccc(P(=O)(O)O)o1)n2Cc1ccoc1 [Compound 12.37, 4-Amino-1-(3-furanylmethyl)-2-[2-(5-phosphono)furanyl]benzimidazole] | 1270 |  | 
CC(C)Cn1c(-c2ccc(P(=O)(O)O)o2)nc2c(N)c(F)cc(CCCBr)c21 [Compound 12.80, 4-Amino-5-fluoro-7-(3-bromopropyl)-1-isobutyl-2-(2-phosphono-5-furanyl)benzimidazole] | 300 | 190 to 195 °C (dec.) | IC50 (rat hepatocytes; Hepatocyte): 1600 nM
CC(C)Cn1c(-c2ccc(P(=O)(O)O)o2)nc2c(N)c(F)cc(Cl)c21 [Compound 12.54, 4-Amino-5-fluoro-7-chloro-1-isobutyl-2-(2-phosphono-5-furanyl)benzimidazole] | 1070 | 220 to 225 °C | 
CC(C)Cn1c(-c2ccc(P(=O)(O)O)o2)nc2c(N)c(Br)ccc21 [Compound 12.44, 4-Amino-5-bromo-1-isobutyl-2-[2-(5-phosphono)furanyl]benzimidazole] |  |  | IC50 (rat hepatocytes): 14000 nM
CC(C)Cn1c(-c2ccc(P(=O)(O)O)o2)nc2c(N)c(F)cc(Br)c21 [Compound 12.62, 4-Amino-5-fluoro-7-bromo-1-isobutyl-2-(2-phosphono-5-furanyl)benzimidazole] |  | 195 to 200 °C | IC50 (rat hepatocytes; Hepatocyte): 5000 nM
CC(C)Cn1c(-c2ccc(P(=O)(O)O)o2)nc2c(O)cccc21 [Compound 13.21, 4-Hydroxy-1-isobutyl-2-(2-phosphono-5-furanyl)benzimidazole] | > 20000 | 244 to 245 °C | 
CC(C)Cn1c(-c2ccc(P(=O)(O)O)o2)nc2c(N)c(F)cc(-c3ccccc3)c21 [Compound 12.67, 4-Amino-7-phenyl-5-fluoro-1-isobutyl-2-(2-phosphono-5-furanyl)benzimidazole] |  | 240 to 241 °C (dec.) | 
Cc1c(C)c(C)c2c(nc(-c3ccc(P(=O)(O)O)o3)n2CC2CC2)c1C (hydrate or solvate) [Compound 13.88, 1-Cyclopropylmethyl-4,5,6,7-tetramethyl-2-(2-phosphono-5-furanyl)benzimidazole] |  | 207 to 208 °C | 
Cc1c(C)c(C)c2[nH]c(-c3ccc(P(=O)(O)O)o3)nc2c1C [Compound 13.82, 4,5,6,7-Tetramethyl-2-(2-phosphono-5-furanyl)benzimidazole] |  | 202 to 206 °C | 
O=P(O)(O)c1ccc(-c2nc3ccccc3n2-c2ccccc2)o1 [Compound 13.12, 1-Phenyl-2-(2-phosphono-5-furanyl)benzimidazole] |  | 196 to 200 °C | 
COc1cccc(-n2c(-c3ccc(P(=O)(O)O)o3)nc3ccc(Cl)cc32)c1 [Compound 13.65, 6-Chloro-1-(3-methoxyphenyl)-2-(2-phosphono-5-furanyl)benzimidazole] |  | 184 to 185 °C | 
